From ChEMBL document CHEMBL3885861, “Open TG-GATES”

Species on record: Rattus norvegicus
Assay: Open TG-GATES - Regimen: Daily Repeat
Assay type: toxicity, organism-based, Sprague-Dawley
Design: regimen Daily Repeat, gender Male, age 6 weeks
Conditions: in vivo, po, 0 mg/kg, route gavage, dose level Control; for APTT / Bas / Eos / Fbg / Hb / Ht / Lym / MCH / MCHC / MCV / Mono / Neu / PT / Plat / RBC / Ret / WBC: tissue Blood; for KIDNEY_L / KIDNEY_R / KIDNEY_TOTAL: tissue Kidney; for LIVER: tissue Liver; for A/G / ALP / ALT / AST / BUN / CRE / Ca / Cl / DBIL / GLC / IP / K / LDH / Na / PL / RALB / TBIL / TC / TG / TP / gamma-GTP: tissue Plasma

Compound: Cc1cccc(C)c1OCC(C)N (configuration not stated) [MEXILETINE]
- TERMINAL_BW (72 h, time 3 day): 240.8 g
- APTT (72 h, time 3 day): 20.3 s
- Bas (72 h, time 3 day): 0%
- Eos (72 h, time 3 day): 0.8%
- Fbg (72 h, time 3 day): 302.4 mg/dL
- Hb (72 h, time 3 day): 12.6 g/dL
- Ht (72 h, time 3 day): 39.4%
- Lym (72 h, time 3 day): 81.6%
- MCH (72 h, time 3 day): 19.9 pg
- MCHC (72 h, time 3 day): 32.1%
- MCV (72 h, time 3 day): 61.9 fL
- Mono (72 h, time 3 day): 2.8%
- Neu (72 h, time 3 day): 13.8%
- PT (72 h, time 3 day): 15.8 s
- Plat (72 h, time 3 day): 115 x10_4/uL
- RBC (72 h, time 3 day): 636.6 x10_4/ul
- Ret (72 h, time 3 day): 6.3%
- WBC (72 h, time 3 day): 120.4 x10_2/uL
- KIDNEY_L (72 h, time 3 day): 1.1 g
- KIDNEY_R (72 h, time 3 day): 1.1 g
- KIDNEY_TOTAL (72 h, time 3 day): 2.2 g
- LIVER (72 h, time 3 day): 11.2 g
- A/G (72 h, time 3 day): 1.3
- ALP (72 h, time 3 day): 1769.2 IU/L
- ALT (72 h, time 3 day): 44.8 IU/L
- AST (72 h, time 3 day): 72.2 IU/L
- BUN (72 h, time 3 day): 15.6 mg/dL
- CRE (72 h, time 3 day): 0.1 mg/dL
- Ca (72 h, time 3 day): 10.4 mg/dL
- Cl (72 h, time 3 day): 106 meq/L
- DBIL (72 h, time 3 day): 0 mg/dL
- GLC (72 h, time 3 day): 201.2 mg/dL
- IP (72 h, time 3 day): 7.6 mg/dL
- K (72 h, time 3 day): 4.4 meq/L
- LDH (72 h, time 3 day): 178 IU/L
- Na (72 h, time 3 day): 142 meq/L
- PL (72 h, time 3 day): 134 mg/dL
- RALB (72 h, time 3 day): 3 g/dL
- TBIL (72 h, time 3 day): 0.008 mg/dL
- TC (72 h, time 3 day): 73.2 mg/dL
- TG (72 h, time 3 day): 69.6 mg/dL
- TP (72 h, time 3 day): 5.4 g/dL
- gamma-GTP (72 h, time 3 day): 2.2 IU/L
- TERMINAL_BW ([…], time 7 day): 274.3 g
- TERMINAL_BW ([…], time 14 day): 321.8 g
- TERMINAL_BW ([…], time 28 day): 408.3 g
- APTT ([…], time 7 day): 23.4 s
- Bas ([…], time 7 day): 0%
- Eos ([…], time 7 day): 1%
- Fbg ([…], time 7 day): 300 mg/dL
- Hb ([…], time 7 day): 12.9 g/dL
- Ht ([…], time 7 day): 39.7%
- Lym ([…], time 7 day): 77.8%
- MCH ([…], time 7 day): 20.4 pg
- MCHC ([…], time 7 day): 32.5%
- MCV ([…], time 7 day): 62.4 fL
- Mono ([…], time 7 day): 2.8%
- Neu ([…], time 7 day): 17.4%
- PT ([…], time 7 day): 15.9 s
- Plat ([…], time 7 day): 106.5 x10_4/uL
- RBC ([…], time 7 day): 637.2 x10_4/ul
- Ret ([…], time 7 day): 6%
- WBC ([…], time 7 day): 115.8 x10_2/uL
- APTT ([…], time 14 day): 22.2 s
- Bas ([…], time 14 day): 0%
- Eos ([…], time 14 day): 0.8%
- Fbg ([…], time 14 day): 310.6 mg/dL
- Hb ([…], time 14 day): 12.8 g/dL
- Ht ([…], time 14 day): 39.4%
- Lym ([…], time 14 day): 80.6%
- MCH ([…], time 14 day): 21 pg
- MCHC ([…], time 14 day): 32.4%
- MCV ([…], time 14 day): 64.8 fL
- Mono ([…], time 14 day): 1.8%
- Neu ([…], time 14 day): 16.2%
- PT ([…], time 14 day): 16.1 s
- Plat ([…], time 14 day): 107.7 x10_4/uL
- RBC ([…], time 14 day): 608.6 x10_4/ul
- Ret ([…], time 14 day): 8.8%
- WBC ([…], time 14 day): 96.5 x10_2/uL
- APTT ([…], time 28 day): 25.3 s
- Bas ([…], time 28 day): 0%
- Eos ([…], time 28 day): 1%
- Fbg ([…], time 28 day): 307.6 mg/dL
- Hb ([…], time 28 day): 14.8 g/dL
- Ht ([…], time 28 day): 43.5%
- Lym ([…], time 28 day): 83.2%
- MCH ([…], time 28 day): 19.2 pg
- MCHC ([…], time 28 day): 34.1%
- MCV ([…], time 28 day): 56.3 fL
- Mono ([…], time 28 day): 1.6%
- Neu ([…], time 28 day): 13.8%
- PT ([…], time 28 day): 16.1 s
- Plat ([…], time 28 day): 91.8 x10_4/uL
- RBC ([…], time 28 day): 774.2 x10_4/ul
- Ret ([…], time 28 day): 2.9%
- WBC ([…], time 28 day): 104.4 x10_2/uL
- KIDNEY_L ([…], time 7 day): 1.2 g
- KIDNEY_R ([…], time 7 day): 1.2 g
- KIDNEY_TOTAL ([…], time 7 day): 2.3 g
- KIDNEY_L ([…], time 14 day): 1.3 g
- KIDNEY_R ([…], time 14 day): 1.3 g
- KIDNEY_TOTAL ([…], time 14 day): 2.5 g
- KIDNEY_L ([…], time 28 day): 1.4 g
- KIDNEY_R ([…], time 28 day): 1.5 g
- KIDNEY_TOTAL ([…], time 28 day): 2.9 g
- LIVER ([…], time 7 day): 13.3 g
- LIVER ([…], time 14 day): 14.2 g
- LIVER ([…], time 28 day): 16.9 g
- A/G ([…], time 7 day): 1.1
- ALP ([…], time 7 day): 1475.8 IU/L
- ALT ([…], time 7 day): 42.2 IU/L
- AST ([…], time 7 day): 65 IU/L
- BUN ([…], time 7 day): 20.4 mg/dL
- CRE ([…], time 7 day): 0.2 mg/dL
- Ca ([…], time 7 day): 10.7 mg/dL
- Cl ([…], time 7 day): 105 meq/L
- DBIL ([…], time 7 day): 0 mg/dL
- GLC ([…], time 7 day): 200.4 mg/dL
- IP ([…], time 7 day): 7.5 mg/dL
- K ([…], time 7 day): 4.2 meq/L
- LDH ([…], time 7 day): 152.8 IU/L
- Na ([…], time 7 day): 141.4 meq/L
- PL ([…], time 7 day): 152.6 mg/dL
- RALB ([…], time 7 day): 3 g/dL
- TBIL ([…], time 7 day): 0.002 mg/dL
- TC ([…], time 7 day): 80.2 mg/dL
- TG ([…], time 7 day): 113.4 mg/dL
- TP ([…], time 7 day): 5.6 g/dL
- gamma-GTP ([…], time 7 day): 2 IU/L
- A/G ([…], time 14 day): 1.1
- ALP ([…], time 14 day): 1564.4 IU/L
- ALT ([…], time 14 day): 45.6 IU/L
- AST ([…], time 14 day): 68.8 IU/L
- BUN ([…], time 14 day): 19 mg/dL
- CRE ([…], time 14 day): 0.2 mg/dL
- Ca ([…], time 14 day): 10.6 mg/dL
- Cl ([…], time 14 day): 104.6 meq/L
- DBIL ([…], time 14 day): 0 mg/dL
- GLC ([…], time 14 day): 211.6 mg/dL
- IP ([…], time 14 day): 7.1 mg/dL
- K ([…], time 14 day): 4.2 meq/L
- LDH ([…], time 14 day): 164.6 IU/L
- Na ([…], time 14 day): 140.6 meq/L
- PL ([…], time 14 day): 147.8 mg/dL
- RALB ([…], time 14 day): 3 g/dL
- TBIL ([…], time 14 day): 0.004 mg/dL
- TC ([…], time 14 day): 70.2 mg/dL
- TG ([…], time 14 day): 143 mg/dL
- TP ([…], time 14 day): 5.8 g/dL
- gamma-GTP ([…], time 14 day): 2.2 IU/L
- A/G ([…], time 28 day): 0.9
- ALP ([…], time 28 day): 1046.8 IU/L
- ALT ([…], time 28 day): 37.2 IU/L
- AST ([…], time 28 day): 61.8 IU/L
- BUN ([…], time 28 day): 19.2 mg/dL
- CRE ([…], time 28 day): 0.2 mg/dL
- Ca ([…], time 28 day): 10.5 mg/dL
- Cl ([…], time 28 day): 104.2 meq/L
- DBIL ([…], time 28 day): 0 mg/dL
- GLC ([…], time 28 day): 194.8 mg/dL
- IP ([…], time 28 day): 6.6 mg/dL
- K ([…], time 28 day): 3.8 meq/L
- LDH ([…], time 28 day): 132.8 IU/L
- Na ([…], time 28 day): 143.2 meq/L
- PL ([…], time 28 day): 135 mg/dL
- RALB ([…], time 28 day): 3 g/dL
- TBIL ([…], time 28 day): 0.01 mg/dL
- TC ([…], time 28 day): 67.8 mg/dL
- TG ([…], time 28 day): 133.6 mg/dL
- TP ([…], time 28 day): 6.2 g/dL
- gamma-GTP ([…], time 28 day): 2 IU/L
